{
  "source": "patent US20220259593A1",
  "about": "“CONTROL OF MAMMALIAN GENE DOSAGE USING CRISPR” (The Regents of the University of California, priority 2019, published 2022)",
  "key": {"K562 CRISPRi cells [1]": {"test_system": "K562 CRISPRi cells", "assay": "Perturb-seq pooled growth measurement (sgRNA counts, growth phenotype γ, relative activity)", "assay_type": "cell-based, human", "details": "γ relative to perfectly matched sgRNA (_00) of the same gene, day 10"}, "K562 CRISPRi cells [2]": {"test_system": "K562 CRISPRi cells", "assay": "Perturb-seq pooled growth measurement (sgRNA counts, growth phenotype γ, relative activity)", "assay_type": "cell-based, human", "details": "for gamma_day5 / gamma_day10: pooled growth phenotype γ of the Perturb-seq sgRNA; for gamma_day5: day 5, K562 CRISPRi cells; for gamma_day10: day 10, K562 CRISPRi cells; for relative_activity_day5: γ relative to perfectly matched sgRNA (_00) of the same gene, day 5", "procedure,_shortened": "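CRISPRi K562 cells from the Perturb-seq transduced pool; 500,000-cell samples taken days two, seven and twelve post-transduction. sgRNA amplicons from genomic DNA sequenced; growth phenotypes from normalized sgRNA abundances at days seven and twelve versus day two. Relative activity assigned from day seven (five days' growth).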"}},
  "data": [
    {"substance": "GATA1 −_48645022.23-P1P2_12 (guide GTGAGCTTGCCACATCCGCA; listed as DNA, chemistry not fully specified)", "values": [
      {"measurement": "relative_activity_day10", "setting": "K562 CRISPRi cells [1]", "value": 0.1028},
      {"measurement": "gamma_day5", "setting": "K562 CRISPRi cells [2]", "value": "−0.1084"},
      {"measurement": "gamma_day10", "setting": "K562 CRISPRi cells [2]", "value": "−0.06327"},
      {"measurement": "relative_activity_day5", "setting": "K562 CRISPRi cells [2]", "value": 0.1126}
    ]},
    {"substance": "HSPA5_ + _128003624.23-P1P2_04 (guide GAGCCGAGAAGGCGACGGTG; listed as DNA, chemistry not fully specified)", "values": [
      {"measurement": "relative_activity_day10", "setting": "K562 CRISPRi cells [1]", "value": 0.989},
      {"measurement": "gamma_day5", "setting": "K562 CRISPRi cells [2]", "value": "−0.7544"},
      {"measurement": "gamma_day10", "setting": "K562 CRISPRi cells [2]", "value": "−0.4225"},
      {"measurement": "relative_activity_day5", "setting": "K562 CRISPRi cells [2]", "value": 1.009}
    ]},
    {"substance": "GINS1_ −_25388381.23-P1P2_08 (guide GGACTAGAGCGAAAGGAGTG; listed as DNA, chemistry not fully specified)", "values": [
      {"measurement": "relative_activity_day10", "setting": "K562 CRISPRi cells [1]", "value": 0.9436},
      {"measurement": "gamma_day5", "setting": "K562 CRISPRi cells [2]", "value": "−1.039"},
      {"measurement": "gamma_day10", "setting": "K562 CRISPRi cells [2]", "value": "−0.6723"},
      {"measurement": "relative_activity_day5", "setting": "K562 CRISPRi cells [2]", "value": 1.039}
    ]},
    {"substance": "CDC23_ −_137548987.23-P1P2_00 (guide GACAGCCACCGGGACCATGG; listed as DNA, chemistry not fully specified)", "values": [
      {"measurement": "relative_activity_day10", "setting": "K562 CRISPRi cells [1]", "value": 1},
      {"measurement": "gamma_day5", "setting": "K562 CRISPRi cells [2]", "value": "−1.176"},
      {"measurement": "gamma_day10", "setting": "K562 CRISPRi cells [2]", "value": "−0.6584"},
      {"measurement": "relative_activity_day5", "setting": "K562 CRISPRi cells [2]", "value": 1}
    ]},
    {"substance": "POLR1D_ + _28196016.23-P1_00 (guide GGGAAGCAAGGACCGACCGA; listed as DNA, chemistry not fully specified)", "values": [
      {"measurement": "relative_activity_day10", "setting": "K562 CRISPRi cells [1]", "value": 1},
      {"measurement": "gamma_day5", "setting": "K562 CRISPRi cells [2]", "value": "−0.7594"},
      {"measurement": "gamma_day10", "setting": "K562 CRISPRi cells [2]", "value": "−0.6213"},
      {"measurement": "relative_activity_day5", "setting": "K562 CRISPRi cells [2]", "value": 1}
    ]},
    {"substance": "GNB2L1_ + _180670873.23-P1P2_07 (guide GTGCAAGGCGGGGGCAGGAG; listed as DNA, chemistry not fully specified)", "values": [
      {"measurement": "relative_activity_day10", "setting": "K562 CRISPRi cells [1]", "value": 0.8948},
      {"measurement": "gamma_day5", "setting": "K562 CRISPRi cells [2]", "value": "−0.38"},
      {"measurement": "gamma_day10", "setting": "K562 CRISPRi cells [2]", "value": "−0.2733"},
      {"measurement": "relative_activity_day5", "setting": "K562 CRISPRi cells [2]", "value": 1.307}
    ]},
    {"substance": "GINS1_ −_25388381.23-P1P2_00 (guide GGACTAGAACGAAAGGAGTG; listed as DNA, chemistry not fully specified)", "values": [
      {"measurement": "relative_activity_day10", "setting": "K562 CRISPRi cells [1]", "value": 1},
      {"measurement": "gamma_day5", "setting": "K562 CRISPRi cells [2]", "value": "−0.9993"},
      {"measurement": "gamma_day10", "setting": "K562 CRISPRi cells [2]", "value": "−0.7125"},
      {"measurement": "relative_activity_day5", "setting": "K562 CRISPRi cells [2]", "value": 1}
    ]},
    {"substance": "BCR_ + _23523092.23-P1P2_05 (guide GCGCGCGGCGCCCGTCTCAG; listed as DNA, chemistry not fully specified)", "values": [
      {"measurement": "relative_activity_day10", "setting": "K562 CRISPRi cells [1]", "value": 0.4434},
      {"measurement": "gamma_day5", "setting": "K562 CRISPRi cells [2]", "value": "−0.3535"},
      {"measurement": "gamma_day10", "setting": "K562 CRISPRi cells [2]", "value": "−0.2247"},
      {"measurement": "relative_activity_day5", "setting": "K562 CRISPRi cells [2]", "value": 0.4196}
    ]},
    {"substance": "CDC23_ −_137548987.23-P1P2_02 (guide GACAGCTACCGGGACCATGG; listed as DNA, chemistry not fully specified)", "values": [
      {"measurement": "relative_activity_day10", "setting": "K562 CRISPRi cells [1]", "value": 0.8665},
      {"measurement": "gamma_day5", "setting": "K562 CRISPRi cells [2]", "value": "−1.087"},
      {"measurement": "gamma_day10", "setting": "K562 CRISPRi cells [2]", "value": "−0.5705"},
      {"measurement": "relative_activity_day5", "setting": "K562 CRISPRi cells [2]", "value": 0.9238}
    ]},
    {"substance": "TUBB_ + _30688126.23-P1_06 (guide GCGGCAGGACGGTTCTGAGA; listed as DNA, chemistry not fully specified)", "values": [
      {"measurement": "relative_activity_day10", "setting": "K562 CRISPRi cells [1]", "value": 0.7922},
      {"measurement": "gamma_day5", "setting": "K562 CRISPRi cells [2]", "value": "−0.7308"},
      {"measurement": "gamma_day10", "setting": "K562 CRISPRi cells [2]", "value": "−0.5544"},
      {"measurement": "relative_activity_day5", "setting": "K562 CRISPRi cells [2]", "value": 0.8147}
    ]},
    {"substance": "RPS15_ −_1438413.23-P1P2_12 (guide GACCAAAGCGATCTCTTGTG; listed as DNA, chemistry not fully specified)", "values": [
      {"measurement": "relative_activity_day10", "setting": "K562 CRISPRi cells [1]", "value": 0.03119},
      {"measurement": "gamma_day5", "setting": "K562 CRISPRi cells [2]", "value": 0.0311},
      {"measurement": "gamma_day10", "setting": "K562 CRISPRi cells [2]", "value": 0.01173},
      {"measurement": "relative_activity_day5", "setting": "K562 CRISPRi cells [2]", "value": 0.05005}
    ]},
    {"substance": "COX11_ + _53045977.23-P1P2_03 (guide GGCTCTGTCGTCCTGGATGG; listed as DNA, chemistry not fully specified)", "values": [
      {"measurement": "relative_activity_day10", "setting": "K562 CRISPRi cells [1]", "value": 0.9622},
      {"measurement": "gamma_day5", "setting": "K562 CRISPRi cells [2]", "value": "−0.1719"},
      {"measurement": "gamma_day10", "setting": "K562 CRISPRi cells [2]", "value": "−0.2875"},
      {"measurement": "relative_activity_day5", "setting": "K562 CRISPRi cells [2]", "value": 0.9463}
    ]},
    {"substance": "POLR2H_ + _184081251.23-P1P2_00 (guide GGGGCCACGAGAGCAGCAGA; listed as DNA, chemistry not fully specified)", "values": [
      {"measurement": "relative_activity_day10", "setting": "K562 CRISPRi cells [1]", "value": 1},
      {"measurement": "gamma_day5", "setting": "K562 CRISPRi cells [2]", "value": "−1.149"},
      {"measurement": "gamma_day10", "setting": "K562 CRISPRi cells [2]", "value": "−0.6391"},
      {"measurement": "relative_activity_day5", "setting": "K562 CRISPRi cells [2]", "value": 1}
    ]},
    {"substance": "ATP5E_ −_57607036.23-P1P2_04 (guide GGTGTCCAGGAGCACTCTGT; listed as DNA, chemistry not fully specified)", "values": [
      {"measurement": "relative_activity_day10", "setting": "K562 CRISPRi cells [1]", "value": 0.5358},
      {"measurement": "gamma_day5", "setting": "K562 CRISPRi cells [2]", "value": "−0.09793"},
      {"measurement": "gamma_day10", "setting": "K562 CRISPRi cells [2]", "value": "−0.1204"},
      {"measurement": "relative_activity_day5", "setting": "K562 CRISPRi cells [2]", "value": 0.5536}
    ]}
  ]
}
